Measurements from patent US20230220047A1, “PEPTIDES FOR TREATMENT OF SEPSIS AND CANCER” (NORWEGIAN UNIVERSITY OF SCIENCE AND TECHNOLOGY (NTNU), priority 2020, published 2023).
“Also recorded” adds a separate entry of the source.

Key:
[1] = tested on: INA-6 multiple myeloma cells; test: CellTiter-Glo cell viability assay, INA-6; assay type: cell-based, human; details: INA-6, 12.5 μM, 48 h
Method: (§1) Minor effects on the proliferation of the IH-1 and RPMI 8226 cell lines are seen. Cells were seeded at the level shown (left-hand bar of each set) then incubated in medium containing water, 10 μM penetratin or 10 μM P7-A4-Pen for 48 hr (except for INA-6 cells, which were incubated with 12.5 μM penetratin or 12.5 μM P7-A4-Pen). The number of viable cells was detected based on quantitation of ATP by luminescent signal in correlation to a standard curve prepared for each cell line. Results are based on 3-5 biological replicates for each condition, error bars show standard deviation of mean.
(§2) Multiple myeloma cells JJN-3 (DSMZ (Germany) no. ACC 541), ANBL-6 (Cellosaurus accession number CVCL_5425, obtained from Dr Diane Jelinek, Mayo Clinic, Rochester, Minn.), INA-6 (Cellosaurus accession number CVCL_5209, obtained from Dr M. Gramatzki, University of Erlangen-Nurnberg, Erlangen, Germany), RPMI-8226 (ATCC CCL-155), and IH-1 (Cellosaurus accession number CVCL_WZ44, established from the pleural effusion of a myeloma patient by Myeloma research group, IKOM, NTNU, Trondheim, Norway) were grown in RPMI-1640 (Sigma-Aldrich Norway, Oslo, Norway) supplemented with 100 nM penicillin/streptomycin and 10% FCS, and for ANBL-6, IH-1 and INA-6 cells 2 ng/ml recombinant IL-6 (Gibco, Thermo Fisher Scientific, Waltham, Mass., USA). […]

[2] = tested on: RPMI 8226 multiple myeloma cells; test: CellTiter-Glo cell viability assay, RPMI 8226; assay type: cell-based, human; details: RPMI 8226, 10 μM, 48 h
Method: as §1, §2

THP-1 cells = test: Viability of acute myeloid leukaemia cell line THP-1; assay type: cell-based, human; details: 5-30 μM, 48 h
Method: THP-1 cells were seeded in medium at 10,000 cells/well, as indicated by the dotted line. Cells were incubated for 48 hours in medium supplemented with water, C3A-Pen, P7-Pen, P7-A4-Pen or P7-N4-Pen. The peptides were included at concentrations ranging from 5-30 μM. At 48 hours cells were counted. […] The results with other peptides were less clear-cut. Results are based on 3 biological replicates, error bars show standard deviation of mean.
The peptides were tested against the SW480 cell line in the presence and absence of LPS.

[3] = tested on: ANBL-6 multiple myeloma cells; test: CellTiter-Glo cell viability assay, ANBL-6; assay type: cell-based
TLR2 = test: Primary human macrophages stimulated with FSL-1: cytokine mRNA, Western blot, IRAK precipitations; assay type: cell-based; details: primary human macrophages (data not shown)
Method: Primary human macrophages (PBMC derived, differentiated in media with 10% human serum and M-CSF 20 ng/ml, 7 days) were stimulated with K12 LPS (100 ng/ml), FSL-1 (100 ng/ml) or CL075 (3 μg/ml). […] (B) qPCR for mRNA expression of IFNβ, IL-6, TNF and IL-1β, average for three biological replicates, error bars ±SD.
Primary human macrophages (7 days) were pre-treated with Pen or P7-Pen (15 μM) for 30 min before addition of LPS (100 ng/ml), FSL-1 (100 ng/ml) or CL075 (3 μg/ml). A: Protein expression in lysates for input control. B,C: Precipitations were performed using sheep anti-IRAK4 (B) or anti-IRAK1 (C) polyclonal antibodies covalently bound to magnetic beads.
The effect of P7-Pen on TLR2-mediated pro-inflammatory cytokine expression was investigated.

TLR4 = test: Western blot of LPS signalling in THP-1 cells and primary human monocytes; assay type: cell-based
Method: Protein pellets were dissolved by heating protein pellets for 10 min at 95° C. in buffer containing 4 M urea, 1 SDS (Sigma) and NuPAGE® LDS Sample Buffer (4×) (Thermo Fisher Scientific). Otherwise, lysates were made using 1× RIPA lysis buffer (150 mM NaCl, 50 mM TrisHCl (pH 7.5), 1% Triton X100, 5 mM EDTA, protease inhibitors, phosphatase inhibitors). For Western blot analysis we used pre-cast protein gels NuPAGE™ Novex™ and iBlot Transfer Stacks iBlot Gel Transfer Device (Thermo Fisher Scientific). Proteins were transferred to the membrane by dry-blotting using iBlot® 2 NC Regular/Mini Stacks (Life Technologies) in the iBlot 2 Dry Blotting System (Life Technologies). After secondary antibody incubation, membranes were washed and incubated with HRP substrate solution (SuperSignal™ West Femto Maximum Sensitivity Substrate (Thermo Fisher Scientific)). Images were taken using Odyssey® Fc (LI-CORE). Quantification graphs were generated by the analysis of signal intensities for protein bands (protein of interest and endogenous loading control—β-tubulin from the same membrane) using Odyssey software (LI-CORE). Data were normalised to the expression levels of β-tubulin and presented as a relative fold change to the control sample.
Further, we tested the effect of P7-Pen on phosphorylation of p38 MAPK, IκBα degradation and modification of IRAK1 in human macrophages (THP-1 cells) and primary human monocytes. P7-Pen inhibited LPS-mediated phosphorylation of p38 MAPK (FIG. 24A) and inhibited IRAK1 ubiquitination/phosphorylation (visualised as band shift to higher molecular weight) in primary monocytes (FIG. 24B).

Row | Substance | cell proliferation [1] | cell proliferation [2] | effect on THP-1 cell number (THP-1 cells) | combination effect with melphalan at low melphalan concentrations ([3]; ANBL-6, 5 μM peptide) | cytotoxic effect of combination with melphalan relative to peptide or melphalan alone ([3]; ANBL-6, 5 μM peptide plus melphalan 8-20 μM, 48 h) | expression of pro-inflammatory cytokines induced by TLR2/6 agonist FSL-1 (TLR2) | LPS-mediated phosphorylation of p38 MAPK (TLR4; THP-1 cells) | IRAK1 ubiquitination/phosphorylation (TLR4; primary monocytes, LPS)
1 | Ac-ITVAASVTLTGRQIKIWFQNRRMKWKK-NH2 [Peptide P7-A4-Pen] | strongly inhibited cell proliferation | Minor effects; also recorded: inhibited cell proliferation | anti-proliferative effect | synergistic effect | much-enhanced cytotoxic effect |  |  | 
2 | Ac-ITVYASVTLTGRQIKIWFQNRRMKWKK-NH2 [Peptide P7-Pen] |  |  |  |  |  | no effect | inhibited | inhibited
